Test results as given in patent publication US20210317134A1, “UBIQUITIN-SPECIFIC-PROCESSING PROTEASE 7 (USP7) MODULATORS AND USES THEREOF” (RAPT THERAPEUTICS, INC., priority 2019, published 2021).
pIC50: −log10 of the molar value.

Biological target: USP7 (Homo sapiens, UniProt Q93009)
Assay: USP7 inhibitory potency (Table 1)
Type: biochemical

Sequence of USP7 (Q93009 whole entry): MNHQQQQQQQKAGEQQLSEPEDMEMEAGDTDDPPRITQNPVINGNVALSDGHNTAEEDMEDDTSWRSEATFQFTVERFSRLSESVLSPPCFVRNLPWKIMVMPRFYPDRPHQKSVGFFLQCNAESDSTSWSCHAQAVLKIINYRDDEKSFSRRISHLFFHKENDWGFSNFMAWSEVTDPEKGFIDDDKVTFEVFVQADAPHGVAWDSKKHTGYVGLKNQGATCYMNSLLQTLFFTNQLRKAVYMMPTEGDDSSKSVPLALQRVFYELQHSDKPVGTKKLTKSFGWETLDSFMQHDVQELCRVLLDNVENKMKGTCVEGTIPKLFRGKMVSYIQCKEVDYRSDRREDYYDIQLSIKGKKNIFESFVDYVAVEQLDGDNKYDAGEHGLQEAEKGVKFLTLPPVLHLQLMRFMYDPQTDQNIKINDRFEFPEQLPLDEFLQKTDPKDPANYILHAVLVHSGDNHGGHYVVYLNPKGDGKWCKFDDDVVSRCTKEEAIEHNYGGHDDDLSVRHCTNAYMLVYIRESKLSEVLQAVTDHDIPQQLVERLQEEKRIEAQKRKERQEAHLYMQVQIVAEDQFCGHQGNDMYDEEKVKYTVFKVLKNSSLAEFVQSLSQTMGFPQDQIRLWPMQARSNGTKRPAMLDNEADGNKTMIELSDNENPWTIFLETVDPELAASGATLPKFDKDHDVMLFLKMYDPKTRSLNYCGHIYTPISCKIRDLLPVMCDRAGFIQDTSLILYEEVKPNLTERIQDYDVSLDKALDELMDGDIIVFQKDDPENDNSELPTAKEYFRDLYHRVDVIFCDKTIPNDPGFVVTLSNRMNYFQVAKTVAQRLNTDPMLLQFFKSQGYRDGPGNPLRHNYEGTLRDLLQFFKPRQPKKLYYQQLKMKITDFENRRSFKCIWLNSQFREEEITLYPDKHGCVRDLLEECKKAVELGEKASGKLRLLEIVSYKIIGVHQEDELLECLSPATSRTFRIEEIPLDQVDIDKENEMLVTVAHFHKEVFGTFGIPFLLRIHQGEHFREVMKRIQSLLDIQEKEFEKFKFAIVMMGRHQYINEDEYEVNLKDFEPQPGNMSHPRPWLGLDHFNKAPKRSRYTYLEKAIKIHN

pIC50	Compound
> 6.00	FC(F)(F)CN1CCc2noc([C@H]3Cc4cc(Cl)cc(-c5ccnc6ccsc56)c4O3)c2C1 [(R)-3-(5-chloro-7-(thieno[3,2-b]pyridin-7-yl)-2,3-dihydrobenzofuran-2-yl)-5-(2,2,2-trifluoroethyl)-4,5,6,7-tetrahydroisoxazolo[4,3-c]pyridine]
5.00 to 6.00	O=C(NCc1ccccc1)c1cc2c(-c3cc(Cl)cc4c3OC(C(=O)N3CCNCC3)C4)ccnc2[nH]1 (stereo not drawn) [N-benzyl-4-(5-chloro-2-(piperazine-1-carbonyl)-2,3-dihydrobenzofuran-7-yl)-1H-pyrrolo[2,3-b]pyridine-2-carboxamide]
> 6.00	CCN1CCc2noc([C@H]3Cc4cc(Cl)cc(-c5ccnc6cc(CO)sc56)c4O3)c2C1 [(R)-(7-(5-chloro-2-(5-ethyl-4,5,6,7-tetrahydroisoxazolo[4,3-c]pyridin-3-yl)-2,3-dihydrobenzofuran-7-yl)thieno[3,2-b]pyridin-2-yl)methanol]
> 6.00	O=C([C@H]1Cc2cc(Cl)cc(-c3ccnc4cc(CCO)sc34)c2O1)N1CCNCC1 [(R)-(5-chloro-7-(2-(2-hydroxyethyl)thieno[3,2-b]pyridin-7-yl)-2,3-dihydrobenzofuran-2-yl)(piperazin-1-yl)methanone]
> 6.00	CC(=O)NCc1cc2ncnc(-c3cc(Cl)cc4c3O[C@@H](c3onc5c3CNCC5)C4)c2s1 [(R)-N-((4-(5-chloro-2-(4,5,6,7-tetrahydroisoxazolo[4,3-c]pyridin-3-yl)-2,3-dihydrobenzofuran-7-yl)thieno[3,2-d]pyrimidin-6-yl)methyl)acetamide]
> 6.00	CN(C)S(=O)(=O)NCCc1cc2nccc(-c3cc(Cl)cc4c3O[C@@H](C(=O)N3CCNCC3)C4)c2s1 [(R)-N-(2-(7-(5-chloro-2-(piperazine-1-carbonyl)-2,3-dihydrobenzofuran-7-yl)thieno[3,2-b]pyridin-2-yl)ethyl)dimethylamimosulfonylurea]
5.00 to 6.00	Cc1cc2c(-c3cc(Cl)cc4c3O[C@@H](c3onc5c3CNCC5)C4)ccnc2cc1C#N [(R)-4-(5-chloro-2-(4,5,6,7-tetrahydroisoxazolo[4,3-c]pyridin-3-yl)-2,3-dihydrobenzofuran-7-yl)-6-methylquinoline-7-carbonitrile]
> 6.00	Cc1cc2nccc(-c3cc(Cl)cc4c3O[C@@H](c3onc5c3CNCC5)C4)c2s1 [(R)-3-(5-chloro-7-(2-methylthieno[3,2-b]pyridin-7-yl)-2,3-dihydrobenzofuran-2-yl)-4,5,6,7-tetrahydroisoxazolo[4,3-c]pyridine]
> 6.00	CS(=O)(=O)NCc1cc2nccc(-c3cc(Cl)cc4c3O[C@@H](C(=O)N3CCNCC3)C4)c2s1 [(R)-N-((7-(5-chloro-2-(piperazine-1-carbonyl)-2,3-dihydrobenzofuran-7-yl)thieno[3,2-b]pyridin-2-yl)methyl)methanesulfonamide]
5.00 to 6.00	N#Cc1cc2c(c(-c3ccnc4cc(CO)sc34)c1)OC(C(=O)N1CCNCC1)C2 (stereo in doubt) [(R)-7-(2-(hydroxymethyl)thieno[3,2-b]pyridin-7-yl)-2-(piperazine-1-carbonyl)-2,3-dihydrobenzofuran-5-carbonitrile]
> 6.00	CN1CCc2noc([C@H]3Cc4cc(Cl)cc(-c5ccnc6ccsc56)c4O3)c2C1 [(R)-3-(5-chloro-7-(thieno[3,2-b]pyridin-7-yl)-2,3-dihydrobenzofuran-2-yl)-5-methyl-4,5,6,7-tetrahydroisoxazolo[4,3-c]pyridine]

The next lines start with the compound.

Compound	pIC50
CC(O)(CO)c1cc2nccc(-c3cc(Cl)cc4c3O[C@@H](C(=O)N3CCNCC3)C4)c2s1 (stereo partly drawn) [((2R)-5-chloro-7-(2-(1,2-dihydroxypropan-2-yl)thieno[3,2-b]pyridin-7-yl)-2,3-dihydrobenzofuran-2-yl)(piperazin-1-yl)methanone]	> 6.00
O=C(C1Cc2cc(Cl)cc(-c3ccnc(Cn4cnc5ccccc5c4=O)c3)c2O1)N1CCNCC1 (stereo not drawn) [3-((4-(5-chloro-2-(piperazine-1-carbonyl)-2,3-dihydrobenzofuran-7-yl)pyridin-2-yl)methyl)quinazolin-4(3H)-one]	4.52 to 5.00
O=C([C@H]1Cc2cc(Cl)cc(-c3ccnc4ccsc34)c2O1)N1CCN2CCCC2C1 (stereo partly drawn) [((R)-5-chloro-7-(thieno[3,2-b]pyridin-7-yl)-2,3-dihydrobenzofuran-2-yl)(hexahydropyrrolo[1,2-a]pyrazin-2(1H)-yl)methanone]	5.00 to 6.00
O=C1CCC(=O)N1Cc1ccc2c(-c3cc(Cl)cc4c3O[C@@H](c3onc5c3CNCC5)C4)ccnc2c1 [(R)-1-((4-(5-chloro-2-(4,5,6,7-tetrahydroisoxazolo[4,3-c]pyridin-3-yl)-2,3-dihydrobenzofuran-7-yl)quinolin-7-yl)methyl)pyrrolidine-2,5-dione]	5.00 to 6.00
CC(O)c1cc2nccc(-c3cc(Cl)cc4c3O[C@@H](C(=O)N3CCNCC3)C4)c2s1 (stereo partly drawn) [((2R)-5-chloro-7-(2-(1-hydroxyethyl)thieno[3,2-b]pyridin-7-yl)-2,3-dihydrobenzofuran-2-yl)(piperazin-1-yl)methanone]	> 6.00
C[C@@H]1C[C@H](NC(=O)C2Cc3cc(Cl)cc(-c4ccnc5[nH]ccc45)c3O2)CCN1 (stereo partly drawn) [5-chloro-N-((2R,4R)-2-methylpiperidin-4-yl)-7-(1H-pyrrolo[2,3-b]pyridin-4-yl)-2,3-dihydrobenzofuran-2-carboxamide]	5.00 to 6.00
O=C(C1Cc2cc(Cl)c(Cl)c(-c3ccnc4[nH]ccc34)c2O1)N1CCNCC1 (stereo not drawn) [(5,6-dichloro-7-(1H-pyrrolo[2,3-b]pyridin-4-yl)-2,3-dihydrobenzofuran-2-yl)(piperazin-1-yl)methanone]	5.00 to 6.00
CCCC1(CO)Cc2nccc(-c3cc(Cl)cc4c3O[C@@H](C(=O)N3CCNCC3)C4)c2C1 (stereo partly drawn) [((2R)-5-chloro-7-(6-(hydroxymethyl)-6-propyl-6,7-dihydro-5H-cyclopenta[b]pyridin-4-yl)-2,3-dihydrobenzofuran-2-yl)(piperazin-1-yl)methanone]	5.00 to 6.00
O=C(C1Cc2cc(Cl)cc(-c3ccnc4[nH]ccc34)c2O1)N1CCN(C2CCNCC2)CC1 (stereo not drawn) [(5-chloro-7-(1H-pyrrolo[2,3-b]pyridin-4-yl)-2,3-dihydrobenzofuran-2-yl)(4-(piperidin-4-yl)piperazin-1-yl)methanone]	4.52 to 5.00
O=C(C1Cc2cc(Cl)cc(-c3ccnc4ccc(Cl)cc34)c2O1)N1CCNCC1 (stereo not drawn) [(5-chloro-7-(6-chloroquinolin-4-yl)-2,3-dihydrobenzofuran-2-yl)(piperazin-1-yl)methanone]	4.52 to 5.00
Clc1cc2c(c(-c3ccnc4[nH]ccc34)c1)OC(c1onc3c1CNCC3)C2 (stereo not drawn) [3-(5-chloro-7-(1H-pyrrolo[2,3-b]pyridin-4-yl)-2,3-dihydrobenzofuran-2-yl)-4,5,6,7-tetrahydroisoxazolo[4,3-c]pyridine]	> 6.00
O=C(C1Cc2cc(Cl)cc(-c3ccnc4c3CCC4)c2O1)N1CCNCC1 (stereo not drawn) [(5-chloro-7-(6,7-dihydro-5H-cyclopenta[b]pyridin-4-yl)-2,3-dihydrobenzofuran-2-yl)(piperazin-1-yl)methanone]	> 6.00
O=C1CN(Cc2cc3nccc(-c4cc(Cl)cc5c4O[C@@H](C(=O)N4CCNCC4)C5)c3s2)C(=O)N1 [(R)-1-((7-(5-chloro-2-(piperazine-1-carbonyl)-2,3-dihydrobenzofuran-7-yl)thieno[3,2-b]pyridin-2-yl)methyl)imidazolidine-2,4-dione]	> 6.00
N#CCC(O)c1cc2nccc(-c3cc(Cl)cc4c3O[C@@H](C(=O)N3CCNCC3)C4)c2s1 (stereo partly drawn) [3-(7-((R)-5-chloro-2-(piperazine-1-carbonyl)-2,3-dihydrobenzofuran-7-yl)thieno[3,2-b]pyridin-2-yl)-3-hydroxypropanenitrile]	> 6.00
CN1CCN(Cc2cc3nccc(-c4cc(Cl)cc5c4O[C@@H](C(=O)N4CCNCC4)C5)c3s2)C1=O [(R)-1-((7-(5-chloro-2-(piperazine-1-carbonyl)-2,3-dihydrobenzofuran-7-yl)thieno[3,2-b]pyridin-2-yl)methyl)-3-methylimidazolidin-2-one]	> 6.00
O=C([C@H]1Cc2cc(Cl)cc(-c3ccnc4cc(CCN5C(=O)CCC5=O)sc34)c2O1)N1CCNCC1 [(R)-1-(2-(7-(5-chloro-2-(piperazine-1-carbonyl)-2,3-dihydrobenzofuran-7-yl)thieno[3,2-b]pyridin-2-yl)ethyl)pyrrolidine-2,5-dione]	> 6.00
NC(=O)C1Cc2nccc(-c3cc(Cl)cc4c3O[C@@H](c3onc5c3CNCC5)C4)c2C1 (stereo partly drawn) [4-((R)-5-chloro-2-(4,5,6,7-tetrahydroisoxazolo[4,3-c]pyridin-3-yl)-2,3-dihydrobenzofuran-7-yl)-6,7-dihydro-5H-cyclopenta[b]pyridine-6-carboxamide]	5.00 to 6.00
CC1(CO)Cc2nccc(-c3cc(Cl)cc4c3O[C@@H](C(=O)N3CCNCC3)C4)c2C1 (stereo partly drawn) [((2R)-5-chloro-7-(6-(hydroxymethyl)-6-methyl-6,7-dihydro-5H-cyclopenta[b]pyridin-4-yl)-2,3-dihydrobenzofuran-2-yl)(piperazin-1-yl)methanone]	> 6.00
O=C(C1Cc2cc(Cl)cc(-c3ccnc4[nH]ccc34)c2O1)N1CCN(c2ccncc2)CC1 (stereo not drawn) [(5-chloro-7-(1H-pyrrolo[2,3-b]pyridin-4-yl)-2,3-dihydrobenzofuran-2-yl)(4-(pyridin-4-yl)piperazin-1-yl)methanone]	5.00 to 6.00
CCC(O)c1cc2ncnc(-c3cc(Cl)cc4c3O[C@@H](C(=O)N3CCNCC3)C4)c2s1 (stereo partly drawn) [((2R)-5-chloro-7-(6-(1-hydroxypropyl)thieno[3,2-d]pyrimidin-4-yl)-2,3-dihydrobenzofuran-2-yl)(piperazin-1-yl)methanone]	> 6.00
O=C(C1Cc2cc(Cl)cc(-c3ccnc4[nH]ccc34)c2O1)N1CCN([C@H]2CC[C@@H](c3ccccc3)CC2)CC1 (stereo partly drawn) [(5-chloro-7-(1H-pyrrolo[2,3-b]pyridin-4-yl)-2,3-dihydrobenzofuran-2-yl)(4-((1s,4s)-4-phenylcyclohexyl)piperazin-1-yl)methanone]	5.00 to 6.00
O=C(C1Cc2cc(Cl)cc(-c3ccnc4cc(C(F)(F)F)ccc34)c2O1)N1CCNCC1 (stereo not drawn) [(5-chloro-7-(7-(trifluoromethyl)quinolin-4-yl)-2,3-dihydrobenzofuran-2-yl)(piperazin-1-yl)methanone]	5.00 to 6.00
